Assays:
Type in all cases: cell-based
[1] = tested on: Human epidermal melanoma cells A375; test: Visible light induced hyperpigmentation in vitro; conditions: for Inhibition vs visible light induced / melanin: visible light 480 J/cm2, A375 cells; for melanin: treated 48 h before and after irradiation
Experimental: Human epidermal melanoma cells A375 were cultured in 6-well plates. The cells were exposed to visible light (480 J/cm2) with Hydrosun 750 equipped with KG1 filter. 48 h prior to and past to the irradiation the cells were treated with test compounds in non-cytotoxic concentrations. Melanocytes were lysed in a solution of NaOH. Melanin was quantified by measurement of absorbance at 405 nm and calculation based on a melanin standard curve.

[2] = tested on: Human epidermal melanoma cells A375; test: Basal melanin formation in vitro; conditions: for melanin: basal
[3] = tested on: ex vivo human skin explants; test: Melanin formation after visible light irradiation on ex vivo human skin; conditions: visible light 480 J/cm2; for Inhibition vs Placebo: ex vivo human skin; for % of melanin: topical on skin explant phototype IV, Fontana-Masson stain, image analysis
Experimental: The below formulations were applied on ex vivo human skin explants from abdominal surgery of a donor with phototype IV (Fitzpatrick scale). 48 h after the formulations were removed with a cotton pad. Skin explants were exposed to visible light (480 J/cm2) with Hydrosun 750 equipped with KG1 filter. Formulations were reapplied afterwards. 48 h later skin sections were prepared and melanin was stained by Fontana-Masson stain. Quantification of melanin was done by image analysis.

NCCC(=O)N[C@@H](Cc1cnc[nH]1)C(=O)O [L-carnosine]
Inhibition vs visible light induced ([1]; 0.001% L-carnosine): 110% | melanin ([1]; 0.001% L-carnosine): 0.5601 µg | Inhibition vs visible light induced ([1]; 0.00316% L-carnosine): 113% | melanin ([1]; 0.00316% L-carnosine): 0.5478 µg | Inhibition vs visible light induced ([1]; 0.01% L-carnosine): 81% | melanin ([1]; 0.01% L-carnosine): 0.6594 µg | Inhibition vs visible light induced ([1]; 0.0316% L-carnosine): 90% | melanin ([1]; 0.0316% L-carnosine): 0.6296 µg | visible light induced hyperpigmentation ([1]; A375 cells): inhibits significantly | effect on basal melanin formation [2]: no effect | melanin ([2]; 0.001% L-carnosine): 0.6845 µg | melanin ([2]; 0.00316% L-carnosine): 0.6186 µg | Inhibition vs Placebo ([3]; 0.05% L-carnosine (formulation C)): 91.1% | % of melanin ([3]; 0.05% L-carnosine (formulation C, Table 3)): 35.74 ± 2.6% | Inhibition vs Placebo ([3]; 0.2% L-carnosine (formulation B)): 92.2% | % of melanin ([3]; 0.2% L-carnosine (formulation B, Table 3)): 35.44 ± 2.3%
